For 1 molecule, E. coli death results are on record in patent US20220105218A1, “METHODS AND SYSTEMS FOR REDUCING A PATHOGEN POPULATION” (The Board of Trustees of the Leland Standford Junior …, priority 2019, published 2022).

The structures appear in SMILES notation.

This experiment has as its system E. coli. Briefly: Disinfection of E. coli-infected surfaces, SYTO9/PI confocal fluorescence microscopy. It is filed as cell-based. To be noted: on stainless steel, plastic and spinach leaf, 20 min treatment. The protocol: The efficacy of AquaROS as a disinfectant for reducing pathogen concentration was tested with three different surfaces infected with E. coli: stainless steel, plastic, and spinach leaf (cut from a single leaf as 1-cm×1-cm squares and washed 3× with distilled water and dried ambiently prior to E. coli deposition). For these experiments, E. coli was cultured in LB broth at 37° C. for approximately 16 hours. Using sterilized LB broth, the E. coli suspension was diluted to a concentration of 4.5×10^8 cells/mL, using a UV-vis spectrophotometer to monitor absorption at 600 nm. Infection of each surface was achieved by deposition of 10 μL of 4.5×10^8 cell/mL E. coli suspension followed by drying in a desiccator for approximately 10 min. AquaROS was applied by spraying pure water at 120 psi and at a height of 1.5 cm from the E. coli surface with a 10 μl/min flow rate for 20 min (FIG. 6). Control samples were treated by depositing 100 μL of 3% H2O2 and allowing it to react for 20 min at room temperature. Following treatment with AquaROS spray and 3% H2O2, 1 mL PBS 1× (pH 7.4) was added to the glass vial containing the treated material, swirled, then pipetted into a 1-mL Eppendorf tube. […]
FIG. 7 is a plot of E. coli death by AquaROS spray on the different surfaces compared to 3% H2O2. Cell death data were acquired by confocal fluorescence microscopy of each sample placed on a glass slide. […]

Take `OO` [3% H2O2, hydrogen peroxide]: the E. coli death entry is “approximately 60%”.
